Experimental data from PubChem BioAssay AID1918930 (Molecular Pharmacology Branch, DTP, NCI, 2023).

System: 233499-124-R-J3-PDC complex spheroid viability, % test/control
Assay: Anticancer human tumor 233499-124-R-J3-PDC patient-derived colon adenocarcinoma cell line growth inhibition
Conditions: for IC50: curve of first compound; for viability, T/C: stronger effect = lower value
Outline: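 Complex spheroids of tumor cells with HUVEC and human MSCs, exposed to iadademstat combined with other agents. Each agent tested in half-log steps from near clinical Cmax (else 10 microM top), DMSO ≤0.25%.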

[1] = second compound 0.1 µM, first compound 0.00949 µM
[2] = second compound 0.1 µM, first compound 0.03 µM
[3] = second compound 0.1 µM, first compound 0.0949 µM
[4] = second compound 0.1 µM, first compound 0.3 µM
[5] = second compound 0.1 µM, first compound 0.949 µM
[6] = second compound 0.1 µM, first compound 3 µM
[7] = second compound 0.316 µM, first compound 0.00949 µM
[8] = second compound 0.316 µM, first compound 0.03 µM
[9] = second compound 0.316 µM, first compound 0.0949 µM
[10] = second compound 0.316 µM, first compound 0.3 µM
[11] = second compound 0.316 µM, first compound 0.949 µM
[12] = second compound 0.316 µM, first compound 3 µM
[13] = second compound 1 µM, first compound 0.00949 µM
[14] = second compound 1 µM, first compound 0.03 µM
[15] = second compound 1 µM, first compound 0.0949 µM
[16] = second compound 1 µM, first compound 0.3 µM
[17] = second compound 1 µM, first compound 0.949 µM
[18] = second compound 1 µM, first compound 3 µM
[19] = second compound 3.16 µM, first compound 0.00949 µM
[20] = second compound 3.16 µM, first compound 0.03 µM
[21] = second compound 3.16 µM, first compound 0.0949 µM
[22] = second compound 3.16 µM, first compound 0.3 µM
[23] = second compound 3.16 µM, first compound 0.949 µM
[24] = second compound 3.16 µM, first compound 3 µM
[25] = second compound 10 µM, first compound 0.00949 µM
[26] = second compound 10 µM, first compound 0.03 µM
[27] = second compound 10 µM, first compound 0.0949 µM
[28] = second compound 10 µM, first compound 0.3 µM
[29] = second compound 10 µM, first compound 0.949 µM
[30] = second compound 10 µM, first compound 3 µM
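Also: spheroids exposed to agents for one week before readout.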

| SMILES | IC50 (second compound 0.1 µM) [nM] | IC50 (second compound 0.316 µM) [nM] | IC50 (second compound 1 µM) [nM] | IC50 (second compound 3.16 µM) [nM] | IC50 (second compound 10 µM) [nM] | viability, T/C [1] [%] | viability, T/C [2] [%] | viability, T/C [3] [%] | viability, T/C [4] [%] | viability, T/C [5] [%] | viability, T/C [6] [%] | viability, T/C [7] [%] | viability, T/C [8] [%] | viability, T/C [9] [%] | viability, T/C [10] [%] | viability, T/C [11] [%] | viability, T/C [12] [%] | viability, T/C [13] [%] | viability, T/C [14] [%] | viability, T/C [15] [%] | other results |
| --- | --- | --- | --- | --- | --- | --- | --- | --- | --- | --- | --- | --- | --- | --- | --- | --- | --- | --- | --- | --- | --- |
| COc1cc(C2c3cc4c(cc3C(OC3OC5COC(C)OC5C(O)C3O)C3COC(=O)C23)OCO4)cc(OC)c1O (stereo not given) + NC1CC1c1ccc(-c2cccc(O)c2)cc1 | 717 | 1690 | 1540 | 728 | 209 | 104 | 101 | 86.5 | 57 | 51.9 | 41.5 | 109 | 113 | 94.8 | 73.4 | 51.5 | 47.8 | 94.3 | 82.1 | 73.3 | viability, T/C [16]: 60.6%; viability, T/C [17]: 53.7%; viability, T/C [18]: 45.5%; viability, T/C [19]: 91.1%; viability, T/C [20]: 86.2%; viability, T/C [21]: 73%; viability, T/C [22]: 62.1%; viability, T/C [23]: 42%; viability, T/C [24]: 46.6%; viability, T/C [25]: 71.4%; viability, T/C [26]: 72.4%; viability, T/C [27]: 63.1%; viability, T/C [28]: 44%; viability, T/C [29]: 46.5%; viability, T/C [30]: 40.6% |
| Nc1ccccc1NC(=O)c1ccc(CNC(=O)OCc2cccnc2)cc1 + NC1CC1c1ccc(-c2cccc(O)c2)cc1 | 453 | 374 | 246 | 387 | 338 | 80.8 | 106 | 100 | 71.4 | 11.4 | 3.1 | 101 | 106 | 93.1 | 59.9 | 11.3 | 1.9 | 101 | 98.8 | 75 | viability, T/C [16]: 47.7%; viability, T/C [17]: 9.92%; viability, T/C [18]: 2.32%; viability, T/C [19]: 84.4%; viability, T/C [20]: 76.1%; viability, T/C [21]: 79.8%; viability, T/C [22]: 60.5%; viability, T/C [23]: 12.9%; viability, T/C [24]: 2.93%; viability, T/C [25]: 71.4%; viability, T/C [26]: 79.6%; viability, T/C [27]: 78.2%; viability, T/C [28]: 54.6%; viability, T/C [29]: 8.25%; viability, T/C [30]: 1.7% |
